{
  "source": "patent US8334258B2",
  "about": "“Method for induction and enhancement of apoptosis in tumor cells” (Georg-August-Universität Göttingen Stiftung Öffentlichen …, priority 2006, dated 2012)",
  "key": {"cancer cells": {"test_system": "cancer cells", "conditions": "Gründker et al. 2004; cited from earlier work"}, "[1]": {"test_system": "MCF-7 breast cancer cell line", "experiment": "Apoptosis assay, flow cytometric analysis of DNA degradation (propidium iodide)", "type": "cell-based, human", "conditions": "MCF-7, FIG. 1 (B)"}},
  "note": "Square brackets hold non-standard residues; d marks the D form. pGlu = O=C1CC[C@@H](C(=O)O)N1",
  "data": [
    {"substance": "[D-Lys^6]GnRH-II ([pGlu]HWSH[dK]WYPG-NH2; SMILES NCCCC[C@@H](NC(=O)[C@H](Cc1c[nH]cn1)NC(=O)[C@H](CO)NC(=O)[C@H](Cc1c[nH]c2ccccc12)NC(=O)[C@H](Cc1c[nH]cn1)NC(=O)[C@@H]1CCC(=O)N1)C(=O)N[C@@H](Cc1c[nH]c2ccccc12)C(=O)N[C@@H](Cc1ccc(O)cc1)C(=O)N1CCC[C@H]1C(=O)NCC(N)=O) [GnRH-II agonist]", "values": [
      {"measurement": "antiproliferative effects after GnRH-I receptor knock-out", "setting": "cancer cells", "result": "still existing"},
      {"measurement": "induction of apoptotic cell death by GnRH-II agonist", "setting": "[1]", "result": "did not induce apoptotic cell death"}
    ]}
  ]
}
